Target: ITK enzyme (ITK FL, N-Flag and C-His tagged) (Homo sapiens (Human), UniProt Q08881)
Experiment: ITK enzyme assay (IL-2-inducible T-cell kinase activity)
Format: biochemical
Conditions: geometric mean of count n
Experimental: IL-2-Inducible T-Cell Kinase (ITK) Activity, IC50 (nM)
ITK activity was determined by measuring the effect of a test compound in an ITK enzyme assay.
1.0 M HEPES Buffer pH 7.5 solution was prepared as follows: 238.3 g HEPES free acid (Sigma) and 800 mL of water were combined, and the mixture was stirred until complete dissolution. The pH was adjusted to 7.5 via titration with 5N NaOH and the volume adjusted to 1000 mL. The solution was filtered and sterilized.
ITK assay buffer was prepared as follows: 50 mL of HPLC-grade water was treated with 2 mL of 1.0 M HEPES Buffer, 500 μL of 2% Gelatin (Sigma), 1.0 mL of aqueous MgCl2 solution (1.0 M), and 1.0 mL of aqueous glutathione solution (0.5 M), and the solution was mixed. The solution was brought to 99 mL in a graduated cylinder by addition of water and sterilized through a 0.2 μm filter. 0.1 mL of Brij-35™ Surfact-Amps™ Detergent Solution (10% w/v aqueous solution, ThermoFisher) and 1.0 mL of ATP (Teknova, 100 mM) were added and the solution was mixed.
The resulting solution was stored on ice. 30 Minutes prior to use, the enzyme solution was removed from ice and equilibrated to RT by incubation in a RT water bath.
Preparation of 4×ITK substrate solution was as follows: 50 mL of ITK assay buffer was treated with 100 μL of BTK peptide (China Peptide Company, 2 mM stock solution in DMSO). The tube was capped, mixed by gently inverting the tube, and then stored on ice. 30 Minutes prior to use, the substrate solution was removed from ice and equilibrated to RT by incubation in a RT water bath.
At the time of assay, 7.5 μL of the 1.33×ITK enzyme solution was added to plate wells containing 0.1 μL of varying concentrations of test compound in DMSO. The plate was incubated 30 min at RT. The plate wells were each treated with 2.5 uL of the 4×ITK substrate solution and the plate was sealed (TopSeal™, Perkin Elmer). The plate was spun at 1000 rpm for 30 sec and then incubated for 60 min at RT. The seal was removed, and each well was treated with 10 μL of Stop/Detect Buffer (20 mM HEPES pH 7.5, 0.01% gelatin, 1 nM LANCE PT66 (Perkin Elmer), 16.5 μg/ml Surelight APC (Perkin Elmer), 10 mM EDTA, 250 mM NaCl). The plate was again covered and was spun at 1000 rpm for 30 seconds. The plate was allowed to incubate overnight at RT and in a closed carrier to reduce dehydration. The seal was removed, and the fluorescence was read with a plate reader with an excitation wavelength of […] and an emission wavelength of 615 nm.

Sequence of ITK enzyme (ITK FL, N-Flag and C-His tagged) (Q08881 whole entry): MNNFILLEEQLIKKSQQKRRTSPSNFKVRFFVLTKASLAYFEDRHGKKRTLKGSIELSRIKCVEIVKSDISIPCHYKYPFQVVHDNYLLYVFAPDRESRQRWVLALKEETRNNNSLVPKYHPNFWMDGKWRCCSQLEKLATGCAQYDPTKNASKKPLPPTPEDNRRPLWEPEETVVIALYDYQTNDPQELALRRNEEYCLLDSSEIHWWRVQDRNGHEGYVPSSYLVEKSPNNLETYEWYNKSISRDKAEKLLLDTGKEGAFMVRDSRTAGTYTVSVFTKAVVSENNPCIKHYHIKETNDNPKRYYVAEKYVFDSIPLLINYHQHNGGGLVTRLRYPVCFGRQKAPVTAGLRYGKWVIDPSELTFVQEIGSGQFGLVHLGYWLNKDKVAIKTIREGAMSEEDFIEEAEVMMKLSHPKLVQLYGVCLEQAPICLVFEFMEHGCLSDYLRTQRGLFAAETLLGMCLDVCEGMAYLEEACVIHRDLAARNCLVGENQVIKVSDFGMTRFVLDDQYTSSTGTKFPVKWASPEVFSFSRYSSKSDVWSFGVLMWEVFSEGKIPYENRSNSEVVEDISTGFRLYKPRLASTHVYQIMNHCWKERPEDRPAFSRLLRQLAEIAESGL

IC50 [nM] | SMILES
121 | Cc1cc2[nH]c(-c3n[nH]c4c3C[C@@H]3C[C@]3(C)C4)nc2cc1NC(=O)[C@H](C)N1CCOCC1 [Example 52, (S)—N-(6-methyl-2-((4aS,5aR)-5a-methyl-1,4,4a,5,5a,6-hexahydrocyclopropa[f]indazol-3-yl)-1H-benzo[d]imidazol-5-yl)-2-morpholinopropanamide]
2 | Cc1cc(N(C)C(=O)[C@H](C)N2CCOCC2)cc2nc(-c3n[nH]c4c3C[C@@H]3C(F)(F)[C@]3(C)C4)[nH]c12 [Example 51, (S)—N-(2-((4aS,5aR)-5,5-difluoro-5a-methyl-1,4,4a,5,5a,6-hexahydrocyclopropa[f]indazol-3-yl)-7-methyl-1H-benzo[d]imidazol-5-yl)-N-methyl-2-morpholinopropanamide]
5 | C[C@@H](C(=O)N(C)c1cc2nc(-c3n[nH]c4c3C[C@@H]3C[C@]3(C)C4)[nH]c2cc1Br)N1CCOCC1 [Example 20, (S)—N-(6-bromo-2-((4aS,5aR)-5a-methyl-1,4,4a,5,5a,6-hexahydrocyclopropa[f]indazol-3-yl)-1H-benzo[d]imidazol-5-yl)-N-methyl-2-morpholinopropanamide]
5 | CCN(C(=O)[C@H](C)N1CCOCC1)c1cc(F)c2[nH]c(-c3n[nH]c4c3C[C@@H]3C[C@]3(C)C4)nc2c1 [Example 16, (S)—N-ethyl-N-(7-fluoro-2-((4aS,5aR)-5a-methyl-1,4,4a,5,5a,6-hexahydrocyclopropa[f]indazol-3-yl)-1H-benzo[d]imidazol-5-yl)-2-morpholinopropanamide]
1 | C[C@@H](C(=O)N(C)c1ccc2[nH]c(-c3n[nH]c4c3C[C@@H]3C(F)(F)[C@]3(C)C4)nc2c1)N1CCOCC1 [Example 13, (S)—N-(2-((4aS,5aR)-5,5-difluoro-5a-methyl-1,4,4a,5,5a,6-hexahydrocyclopropa[f]indazol-3-yl)-1H-benzo[d]imidazol-5-yl)-N-methyl-2-morpholinopropanamide]
13 | CCN(C(=O)[C@H](C)N1CCOCC1)c1cc2nc(-c3n[nH]c4c3C[C@@H]3C[C@]3(C)C4)[nH]c2c(F)c1F [Example 25, (S)—N-(6,7-difluoro-2-((4aS,5aR)-5a-methyl-1,4,4a,5,5a,6-hexahydrocyclopropa[f]indazol-3-yl)-1H-benzo[d]imidazol-5-yl)-N-ethyl-2-morpholinopropanamide]
19 | Cc1cc2[nH]c(-c3n[nH]c4c3C[C@@H]3C[C@]3(C)C4)nc2cc1N(C)C(=O)CN1CCO[C@@H](CO)C1 [Example 28, 2-((R)-2-(Hydroxymethyl)morpholino)-N-methyl-N-(6-methyl-2-((4aS,5aR)-5a-methyl-1,4,4a,5,5a,6-hexahydrocyclopropa[f]indazol-3-yl)-1H-benzo[d]imidazol-5-yl)acetamide]
9 | COc1cc2[nH]c(-c3n[nH]c4c3C[C@@H]3C[C@]3(C)C4)nc2cc1N(C)C(=O)[C@H](C)N1CCOCC1 [Example 19, (S)—N-(6-methoxy-2-((4aS,5aR)-5a-methyl-1,4,4a,5,5a,6-hexahydrocyclopropa[f]indazol-3-yl)-1H-benzo[d]imidazol-5-yl)-N-methyl-2-morpholinopropanamide]
12 | Cc1cc2[nH]c(-c3n[nH]c4c3C[C@@H]3C[C@]3(C)C4)nc2cc1N(C)C(=O)CN1CCO[C@H](CO)C1 [Example 26, 2-((S)-2-(hydroxymethyl)morpholino)-N-methyl-N-(6-methyl-2-((4aS,5aR)-5a-methyl-1,4,4a,5,5a,6-hexahydrocyclopropa[f]indazol-3-yl)-1H-benzo[d]imidazol-5-yl)acetamide]
5 | C[C@@H](C(=O)N(C)c1cc2nc(-c3n[nH]c4c3C[C@@H]3C[C@]3(C)C4)[nH]c2cc1F)N1CCOCC1 [Example 17, (S)—N-(6-fluoro-2-((4aS,5aR)-5a-methyl-1,4,4a,5,5a,6-hexahydrocyclopropa[f]indazol-3-yl)-1H-benzo[d]imidazol-5-yl)-N-methyl-2-morpholinopropanamide]
15 | Cc1cc2[nH]c(-c3n[nH]c4c3C[C@@H]3C[C@]3(C)C4)nc2cc1N(C)C(=O)CN1CCO[C@H](C)C1 [Example 30, N-Methyl-N-(6-methyl-2-((4aS,5aR)-5a-methyl-1,4,4a,5,5a,6-hexahydrocyclopropa[f]indazol-3-yl)-1H-benzo[d]imidazol-5-yl)-2-((R)-2-methylmorpholino)acetamide]
3 | C[C@@H](C(=O)N(C)c1ccc2[nH]c(-c3n[nH]c4c3C[C@@H]3C[C@]3(C)C4)nc2c1)N1CCOCC1 [Example 14, (S)—N-methyl-N-(2-((4aS,5aR)-5a-methyl-1,4,4a,5,5a,6-hexahydrocyclopropa[f]indazol-3-yl)-1H-benzo[d]imidazol-5-yl)-2-morpholinopropanamide]
9 | C[C@@H](C(=O)N(C)c1cc2nc(-c3n[nH]c4c3C[C@@H]3C[C@]3(C)C4)[nH]c2cc1C#N)N1CCOCC1 [Example 21, (S)—N-(6-cyano-2-((4aS,5aR)-5a-methyl-1,4,4a,5,5a,6-hexahydrocyclopropa[f]indazol-3-yl)-1H-benzo[d]imidazol-5-yl)-N-methyl-2-morpholinopropanamide]
11 | CCN(C(=O)[C@H](C)N1CCOCC1)c1cc2nc(-c3n[nH]c4c3C[C@@H]3C[C@]3(C)C4)[nH]c2cc1C [Example 6, (S)—N-ethyl-N-(6-methyl-2-((4aS,5aR)-5a-methyl-1,4,4a,5,5a,6-hexahydrocyclopropa[f]indazol-3-yl)-1H-benzo[d]imidazol-5-yl)-2-morpholinopropanamide]
7 | C[C@@H](C(=O)N(C)c1cc(C#N)c2[nH]c(-c3n[nH]c4c3C[C@@H]3C[C@]3(C)C4)nc2c1)N1CCOCC1 [Example 38, (S)—N-(7-cyano-2-((4aS,5aR)-5a-methyl-1,4,4a,5,5a,6-hexahydrocyclopropa[f]indazol-3-yl)-1H-benzo[d]imidazol-5-yl)-N-methyl-2-morpholinopropanamide]
28 | CCc1cc(N(C)C(=O)[C@H](C)N2CCOCC2)cc2nc(-c3n[nH]c4c3C[C@@H]3C[C@]3(C)C4)[nH]c12 [Example 44, (S)—N-(7-ethyl-2-((4aS,5aR)-5a-methyl-1,4,4a,5,5a,6-hexahydrocyclopropa[f]indazol-3-yl)-1H-benzo[d]imidazol-5-yl)-N-methyl-2-morpholinopropanamide]
12 | Cc1cc2[nH]c(-c3n[nH]c4c3C[C@@H]3C[C@]3(C)C4)nc2cc1N(C)C(=O)CN1CCOC(C)(C)C1 [Example 29, 2-(2,2-Dimethylmorpholino)-N-methyl-N-(6-methyl-2-((4aS,5aR)-5a-methyl-1,4,4a,5,5a,6-hexahydrocyclopropa[f]indazol-3-yl)-1H-benzo[d]imidazol-5-yl)acetamide]
34 | C[C@@H](C(=O)N(C)c1cc(C(F)(F)F)c2[nH]c(-c3n[nH]c4c3C[C@@H]3C[C@]3(C)C4)nc2c1)N1CCOCC1 [Example 41, (S)—N-methyl-N-(2-((4aS,5aR)-5a-methyl-1,4,4a,5,5a,6-hexahydrocyclopropa[f]indazol-3-yl)-7-(trifluoromethyl)-1H-benzo[d]imidazol-5-yl)-2-morpholinopropanamide]
12 | COCCOc1cc2[nH]c(-c3n[nH]c4c3C[C@@H]3C[C@]3(C)C4)nc2cc1N(C)C(=O)[C@H](C)N1CCOCC1 [Example 49, (S)—N-(6-(2-methoxyethoxy)-2-((4aS,5aR)-5a-methyl-1,4,4a,5,5a,6-hexahydrocyclopropa[f]indazol-3-yl)-1H-benzo[d]imidazol-5-yl)-N-methyl-2-morpholinopropanamide]
29 | Cc1c(F)c(N(C)C(=O)[C@H](C)N2CCOCC2)cc2nc(-c3n[nH]c4c3C[C@@H]3C[C@]3(C)C4)[nH]c12 [Example 47, (S)—N-(6-fluoro-7-methyl-2-((4aS,5aR)-5a-methyl-1,4,4a,5,5a,6-hexahydrocyclopropa[f]indazol-3-yl)-1H-benzo[d]imidazol-5-yl)-N-methyl-2-morpholinopropanamide]
272 | CN(C(=O)CC1CCOCC1)c1cc2nc(-c3n[nH]c4c3C[C@@H]3C[C@]3(C)C4)[nH]c2cc1C#N [Example 54, N-(6-cyano-2-((4aS,5aR)-5a-methyl-1,4,4a,5,5a,6-hexahydrocyclopropa[f]indazol-3-yl)-1H-benzo[d]imidazol-5-yl)-N-methyl-2-(tetrahydro-2H-pyran-4-yl)acetamide]

— patent US20230280220A1, “Benzimidazole Derivative Compounds and Uses Thereof” (Pfizer Inc., priority 2019, published 2023)
